Tested on: MV-4-11 cells
Assay: Gene expression microarray analysis (Affymetrix PrimeView) and GSEA
Type: cell-based, human
Parameters: RFU PODN (11730768_x_at) / Fold change /veh PODN (11730768_x_at) / RFU LINC00158 (11744669_a_at) / Fold change /veh LINC00158 (11744669_a_at) / RFU DUSP10 (11751237_a_at) / Fold change /veh DUSP10 (11751237_a_at) / RFU ID3 (11757404_x_at) / Fold change /veh ID3 (11757404_x_at) / RFU PLEKHG5 (11737974_s_at) / Fold change /veh PLEKHG5 (11737974_s_at) / RFU LRRC4B (11730491_at) / Fold change /veh LRRC4B (11730491_at) / RFU GIMAP4 (11747438_a_at) / Fold change /veh GIMAP4 (11747438_a_at) / RFU KRT8 (11758183_x_at) / Fold change /veh KRT8 (11758183_x_at) / RFU CNN1 (11734310_a_at) / Fold change /veh CNN1 (11734310_a_at) / RFU VPS37D (11726825_at) / Fold change /veh VPS37D (11726825_at) / RFU C10orf10 (11716522_x_at) / Fold change /veh C10orf10 (11716522_x_at) / RFU KIR2DL2 /// KIR2DL4 /// KIR2DL5A /// KIR2DL5B /// KIR2DS1 /// KIR2DS2 /// KIR2DS3 /// KIR2DS4 /// KIR3DL3 /// KIR3DL3 /// KIR3DS1 (11738374_at) / Fold change /veh KIR2DL2 /// KIR2DL4 /// KIR2DL5A /// KIR2DL5B /// KIR2DS1 /// KIR2DS2 /// KIR2DS3 /// KIR2DS4 /// KIR3DL3 /// KIR3DL3 /// KIR3DS1 (11738374_at) / RFU C1QL1 (11718748_at) / Fold change /veh C1QL1 (11718748_at) / RFU TMPRSS4 (11747572_a_at) / Fold change /veh TMPRSS4 (11747572_a_at) / RFU HAMP (11756126_x_at) / Fold change /veh HAMP (11756126_x_at) / RFU RNFT2 (11725882_a_at) / Fold change /veh RNFT2 (11725882_a_at) / RFU NR4A2 (11747474_a_at) / Fold change /veh NR4A2 (11747474_a_at) / RFU ABCC12 (11746883_a_at) / Fold change /veh ABCC12 (11746883_a_at) / RFU TMEM136 (11760407_x_at) / Fold change /veh TMEM136 (11760407_x_at) / RFU CLDN22 /// WWC2 (11732394_at) / Fold change /veh CLDN22 /// WWC2 (11732394_at) / RFU HLA-DPB1 (11760878_x_at) / Fold change /veh HLA-DPB1 (11760878_x_at) / RFU SPINT1 (11716480_a_at) / Fold change /veh SPINT1 (11716480_a_at) / RFU GAP43 (11754022_s_at) / Fold change /veh GAP43 (11754022_s_at) / RFU A4GNT (11735810_at) / Fold change /veh A4GNT (11735810_at) / RFU PRB3 (11715151_x_at) / Fold change /veh PRB3 (11715151_x_at) / RFU TUBB4B (11761932_at) / Fold change /veh TUBB4B (11761932_at) / RFU CAPN14 (11732068_a_at) / Fold change /veh CAPN14 (11732068_a_at) / RFU TMCC2 (11721928_a_at) / Fold change /veh TMCC2 (11721928_a_at) / RFU IRGQ (11745062_a_at) / Fold change /veh IRGQ (11745062_a_at) / RFU FAM174B (11720279_a_at) / Fold change /veh FAM174B (11720279_a_at) / RFU TMPRSS4 (11748680_a_at) / Fold change /veh TMPRSS4 (11748680_a_at) / RFU FAM212B (11763350_a_at) / Fold change /veh FAM212B (11763350_a_at) / RFU PLEKHG5 (11743358_a_at) / Fold change /veh PLEKHG5 (11743358_a_at) / RFU ZSCAN30 (11745921_a_at) / Fold change /veh ZSCAN30 (11745921_a_at) / RFU CMKLR1 (11741424_a_at) / Fold change /veh CMKLR1 (11741424_a_at) / RFU LOC101060620 /// MAPK8IP1 (11723275_at) / Fold change /veh LOC101060620 /// MAPK8IP1 (11723275_at) / RFU SPTSSB (11747773_x_at) / Fold change /veh SPTSSB (11747773_x_at) / RFU PRSS12 (11739890_at) / Fold change /veh PRSS12 (11739890_at) / RFU BIN1 (11741810_x_at) / Fold change /veh BIN1 (11741810_x_at) / RFU WNT11 (11732464_a_at) / Fold change /veh WNT11 (11732464_a_at) / RFU C10orf10 (11716521_a_at) / Fold change /veh C10orf10 (11716521_a_at) / RFU C5orf56 (11738089_at) / Fold change /veh C5orf56 (11738089_at) / RFU CYB561 (11721691_x_at) / Fold change /veh CYB561 (11721691_x_at) / RFU ANKRD19P (11752326_a_at) / Fold change /veh ANKRD19P (11752326_a_at) / RFU OR2T12 /// OR2T33 /// OR2T8 (11738714_s_at) / Fold change /veh OR2T12 /// OR2T33 /// OR2T8 (11738714_s_at) / RFU VCAN (11748164_a_at) / Fold change /veh VCAN (11748164_a_at) / RFU JSRP1 (11732532_at) / Fold change /veh JSRP1 (11732532_at) / RFU KRTAP10-11 (11738290_x_at) / Fold change /veh KRTAP10-11 (11738290_x_at) / RFU MYO3A (11730013_a_at) / Fold change /veh MYO3A (11730013_a_at) / RFU EBF3 (11725865_a_at) / Fold change /veh EBF3 (11725865_a_at) / RFU CAMK2N1 (11719241_x_at) / Fold change /veh CAMK2N1 (11719241_x_at) / RFU C5orf56 (11738088_a_at) / Fold change /veh C5orf56 (11738088_a_at) / RFU OLFML3 (11715873_a_at) / Fold change /veh OLFML3 (11715873_a_at) / RFU LOC100653217 /// NTM (11731650_a_at) / Fold change /veh LOC100653217 /// NTM (11731650_a_at) / RFU MAPK11 (11762145_a_at) / Fold change /veh MAPK11 (11762145_a_at) / RFU FIZ1 (11724087_x_at) / Fold change /veh FIZ1 (11724087_x_at) / RFU OASL (11726364_x_at) / Fold change /veh OASL (11726364_x_at) / RFU SOX15 (11748057_x_at) / Fold change /veh SOX15 (11748057_x_at) / RFU CD79A (11719716_a_at) / Fold change /veh CD79A (11719716_a_at) / RFU HIST1H1D (11736915_at) / Fold change /veh HIST1H1D (11736915_at) / RFU CASKIN2 (11723855_a_at) / Fold change /veh CASKIN2 (11723855_a_at) / RFU LOC730098 (11760151_x_at) / Fold change /veh LOC730098 (11760151_x_at) / RFU OR4N2 (11742367_at) / Fold change /veh OR4N2 (11742367_at) / RFU PRRT2 (11749266_a_at) / Fold change /veh PRRT2 (11749266_a_at) / RFU SNX32 (11753110_a_at) / Fold change /veh SNX32 (11753110_a_at) / RFU CDHR5 (11726645_a_at) / Fold change /veh CDHR5 (11726645_a_at) / RFU RCAN1 (11760418_a_at) / Fold change /veh RCAN1 (11760418_a_at) / RFU FAM167A (11723789_a_at) / Fold change /veh FAM167A (11723789_a_at) / RFU FAM26E (11764081_at) / Fold change /veh FAM26E (11764081_at) / RFU ISYNA1 (11749810_s_at) / Fold change /veh ISYNA1 (11749810_s_at) / RFU ACY1 (11761880_at) / Fold change /veh ACY1 (11761880_at) / RFU 11764098_at / Fold change /veh 11764098_at / RFU SAMD14 (11745864_x_at) / Fold change /veh SAMD14 (11745864_x_at) / RFU NPB (11741838_a_at) / Fold change /veh NPB (11741838_a_at) / RFU TMPRSS6 (11731388_a_at) / Fold change /veh TMPRSS6 (11731388_a_at) / RFU KRTAP10-2 (11738614_at) / Fold change /veh KRTAP10-2 (11738614_at) / RFU ARHGAP8 /// PRR5-ARHGAP8 (11727945_x_at) / Fold change /veh ARHGAP8 /// PRR5-ARHGAP8 (11727945_x_at) / RFU KRTAP5-7 /// NADSYN1 (11734609_at) / Fold change /veh KRTAP5-7 /// NADSYN1 (11734609_at) / RFU RASL12 (11751679_a_at) / Fold change /veh RASL12 (11751679_a_at) / RFU CDKN2B (11736163_a_at) / Fold change /veh CDKN2B (11736163_a_at) / RFU PRF1 (11729649_at) / Fold change /veh PRF1 (11729649_at) / RFU, ZNF638 /// ZNF638-IT1 / Fold change vs veh, ZNF638 /// ZNF638-IT1 / RFU, PANK3 / Fold change vs veh, PANK3 / RFU, SH3YL1 / Fold change vs veh, SH3YL1 / RFU, ZEB2 / Fold change vs veh, ZEB2 / RFU, NRIP1 / Fold change vs veh, NRIP1 / RFU, PTTG1IP / Fold change vs veh, PTTG1IP / RFU, CAPN2 / Fold change vs veh, CAPN2 / RFU, MED14 / Fold change vs veh, MED14 / RFU, SNORA58 / Fold change vs veh, SNORA58 / RFU, C1orf63 / Fold change vs veh, C1orf63 / RFU, LRRFIP1 / Fold change vs veh, LRRFIP1 / RFU, NDUFAF7 / Fold change vs veh, NDUFAF7 / RFU, SLC12A2 / Fold change vs veh, SLC12A2 / RFU, IBTK / Fold change vs veh, IBTK / RFU, ESF1 / Fold change vs veh, ESF1 / Fold change vs veh, TMEM50B / RFU, TAOK1 / Fold change vs veh, TAOK1 / RFU, ACBD3 / Fold change vs veh, ACBD3 / RFU, TMA16 / Fold change vs veh, TMA16 / RFU, RWDD3 / Fold change vs veh, RWDD3 / RFU, BCAT1 / Fold change vs veh, BCAT1 / RFU, EDEM3 / Fold change vs veh, EDEM3 / RFU, TMEM33 / Fold change vs veh, TMEM33 / RFU, WDR75 / Fold change vs veh, WDR75 / RFU, AHCTF1 / Fold change vs veh, AHCTF1 / RFU, TFRC / Fold change vs veh, TFRC / RFU, ZDHHC17 / Fold change vs veh, ZDHHC17 / RFU, NOM1 / Fold change vs veh, NOM1 / RFU, ARL8B / Fold change vs veh, ARL8B / RFU, ZBTB11 / Fold change vs veh, ZBTB11 / RFU, TAMM41 / Fold change vs veh, TAMM41 / RFU, KIAA1704 /// LOC100996395 / Fold change vs veh, KIAA1704 /// LOC100996395 / RFU, ING1 / Fold change vs veh, ING1 / RFU, TRMT61B / Fold change vs veh, TRMT61B / RFU, FUBP3 / Fold change vs veh, FUBP3 / RFU, TP53 / Fold change vs veh, TP53 / RFU, TNKS2 / Fold change vs veh, TNKS2 / RFU, ZFP14 / Fold change vs veh, ZFP14 / RFU, ACTR2 / Fold change vs veh, ACTR2 / RFU, PPP3R1 / Fold change vs veh, PPP3R1 / RFU, PIK3R1 / Fold change vs veh, PIK3R1 / RFU, HNRNPA1 / Fold change vs veh, HNRNPA1 / RFU, RNF170 / Fold change vs veh, RNF170 / RFU, ZNF28 / Fold change vs veh, ZNF28 / RFU, RNGTT / Fold change vs veh, RNGTT / RFU, OGT / Fold change vs veh, OGT / RFU, BRD1 / Fold change vs veh, BRD1 / RFU, MARS / Fold change vs veh, MARS / RFU, ZNF655 / Fold change vs veh, ZNF655 / RFU, FAHD1 / Fold change vs veh, FAHD1 / RFU, BDP1 / Fold change vs veh, BDP1 / RFU, LRRCC1 / Fold change vs veh, LRRCC1 / RFU, ARID1A / Fold change vs veh, ARID1A / RFU, ZNF146 / Fold change vs veh, ZNF146 / RFU, ZNF330 / Fold change vs veh, ZNF330 / RFU, GPN3 / Fold change vs veh, GPN3 / RFU, C9orf123 / Fold change vs veh, C9orf123 / RFU, N4BP2L2 / Fold change vs veh, N4BP2L2 / RFU, ARFIP1 / Fold change vs veh, ARFIP1 / RFU, FAM179B / Fold change vs veh, FAM179B / RFU, BCL10 / Fold change vs veh, BCL10 / RFU, UHRF1BP1L / Fold change vs veh, UHRF1BP1L / RFU, BET1 / Fold change vs veh, BET1 / RFU, CNOT2 / Fold change vs veh, CNOT2 / RFU, ZNF268 / Fold change vs veh, ZNF268 / Fold change vs veh, ZNF507 / RFU, DGCR2 / Fold change vs veh, DGCR2 / RFU, WDSUB1 / Fold change vs veh, WDSUB1 / Fold change vs veh, HSP90B1 /// MIR3652 / RFU, ADSS / Fold change vs veh, ADSS / RFU, GK / Fold change vs veh, GK / RFU, ZNF148 / Fold change vs veh, ZNF148 / RFU, TAF9 / Fold change vs veh, TAF9 / RFU, SLC1A5 / Fold change vs veh, SLC1A5 / RFU, SLMO2 / Fold change vs veh, SLMO2 / RFU, ABCC4 / Fold change vs veh, ABCC4 / RFU, LOC101060439 /// RAP1B / Fold change vs veh, LOC101060439 /// RAP1B / RFU, RFX7 / Fold change vs veh, RFX7 / RFU, GTPBP10 / Fold change vs veh, GTPBP10 / RFU, CNEP1R1 / Fold change vs veh, CNEP1R1 / RFU, BIVM-ERCC5 /// ERCC5 / Fold change vs veh, BIVM-ERCC5 /// ERCC5 / RFU, ILF3 / Fold change vs veh, ILF3 / RFU 11762660_at / Fold change /veh 11762660_at / RFU VCAN (11757783_s_at) / Fold change /veh VCAN (11757783_s_at) / RFU DDX43 (11728927_at) / Fold change /veh DDX43 (11728927_at) / RFU KRT8 (11758188_x_at) / Fold change /veh KRT8 (11758188_x_at) / RFU NKD1 (11759106_at) / Fold change /veh NKD1 (11759106_at) / RFU SRD5A1 (11742802_a_at) / Fold change /veh SRD5A1 (11742802_a_at) / RFU TPSAB1 /// TPSB2 (11721975_s_at) / Fold change /veh TPSAB1 /// TPSB2 (11721975_s_at) / RFU GSTM3 (11746129_a_at) / Fold change /veh GSTM3 (11746129_a_at) / RFU IL23R (11737362_x_at) / Fold change /veh IL23R (11737362_x_at) / RFU TMEM51 (11727254_a_at) / Fold change /veh TMEM51 (11727254_a_at) / RFU PIWIL2 (11732686_x_at) / Fold change /veh PIWIL2 (11732686_x_at) / RFU ORM1 (11744905_x_at) / Fold change /veh ORM1 (11744905_x_at) / RFU CCDC152 (11743942_at) / Fold change /veh CCDC152 (11743942_at) / RFU ECM1 (11717891_a_at) / Fold change /veh ECM1 (11717891_a_at) / RFU IL23R (11748794_a_at) / Fold change /veh IL23R (11748794_a_at) / RFU TNFAIP8L3 (11732012_x_at) / Fold change /veh TNFAIP8L3 (11732012_x_at) / RFU MBOAT4 (11741988_at) / Fold change /veh MBOAT4 (11741988_at) / RFU 11764193_at / Fold change /veh 11764193_at / RFU TMEM53 (11763286_at) / Fold change /veh TMEM53 (11763286_at) / RFU MAGEB2 (11727129_at) / Fold change /veh MAGEB2 (11727129_at) / RFU TMEM200A (11744735_a_at) / Fold change /veh TMEM200A (11744735_a_at) / RFU CCDC152 (11751479_a_at) / Fold change /veh CCDC152 (11751479_a_at) / RFU FAM211A (11726209_a_at) / Fold change /veh FAM211A (11726209_a_at) / RFU RGS16 (11746705_a_at) / Fold change /veh RGS16 (11746705_a_at) / RFU VCAN (11755009_s_at) / Fold change /veh VCAN (11755009_s_at) / RFU RHOB (11743442_s_at) / Fold change /veh RHOB (11743442_s_at) / RFU RGS16 (11720943_a_at) / Fold change /veh RGS16 (11720943_a_at) / RFU RGS16 (11720944_at) / Fold change /veh RGS16 (11720944_at) / RFU, VPS4B / Fold change vs veh, VPS4B / RFU, CREB1 / Fold change vs veh, CREB1 / RFU, DNAJC13 / Fold change vs veh, DNAJC13 / RFU, GNAQ / Fold change vs veh, GNAQ / RFU, CDK5R1 / Fold change vs veh, CDK5R1 / RFU, ZRANB3 / Fold change vs veh, ZRANB3 / RFU, CUL4A / Fold change vs veh, CUL4A / RFU, CCNY / Fold change vs veh, CCNY / RFU, UFL1 / Fold change vs veh, UFL1 / RFU, COG3 / Fold change vs veh, COG3 / RFU, DIAPH2 / Fold change vs veh, DIAPH2 / RFU, SKA2 / Fold change vs veh, SKA2 / RFU, AFF3 / Fold change vs veh, AFF3 / RFU, LMF1 / Fold change vs veh, LMF1 / RFU, IPO11 / Fold change vs veh, IPO11 / RFU, DFFB / Fold change vs veh, DFFB / RFU, FOXP1 / Fold change vs veh, FOXP1 / RFU, CARD8 / Fold change vs veh, CARD8 / RFU, STRN3 / Fold change vs veh, STRN3 / RFU, ADK / Fold change vs veh, ADK / RFU, RASSF2 / Fold change vs veh, RASSF2 / RFU, WIPF1 / Fold change vs veh, WIPF1 / RFU, LARP1B / Fold change vs veh, LARP1B / RFU, RASA1 / Fold change vs veh, RASA1 / RFU, RB1 / Fold change vs veh, RB1 / RFU, PPFIA1 / Fold change vs veh, PPFIA1 / RFU, MAT2A / Fold change vs veh, MAT2A / RFU, CCT5 / Fold change vs veh, CCT5 / RFU, WDR92 / Fold change vs veh, WDR92 / RFU, CUX1 / Fold change vs veh, CUX1 / RFU, TTC7A / Fold change vs veh, TTC7A / RFU, TMEM135 / Fold change vs veh, TMEM135 / RFU, DEPTOR / Fold change vs veh, DEPTOR / RFU, CPM / Fold change vs veh, CPM / RFU, DNAJB6 / Fold change vs veh, DNAJB6 / RFU, CACNA2D3 / Fold change vs veh, CACNA2D3 / RFU, DTX4 / Fold change vs veh, DTX4 / RFU, TFCP2 / Fold change vs veh, TFCP2 / RFU, GMCL1 /// GMCL1P1 / Fold change vs veh, GMCL1 /// GMCL1P1 / RFU, AEBP2 / Fold change vs veh, AEBP2 / RFU, SNHG1 /// SNORD22 /// SNORD25 /// SNORD26 /// SNORD27 /// SNORD28 /// SNORD29 /// SNORD31 / Fold change vs veh, SNHG1 /// SNORD22 /// SNORD25 /// SNORD26 /// SNORD27 /// SNORD28 /// SNORD29 /// SNORD31 / Fold change (Aza/veh), C12orf56 (ProbeSet 11735607_a_at) / Fold change (ACY-1035/veh), C12orf56 (ProbeSet 11735607_a_at) / Fold change (Aza/veh), FGFR1OP (ProbeSet 11751329_s_at) / Fold change (ACY-1035/veh), FGFR1OP (ProbeSet 11751329_s_at) / Fold change (Aza/veh), VPS36 (ProbeSet 11739960_a_at) / Fold change (ACY-1035/veh), VPS36 (ProbeSet 11739960_a_at) / RFU SYPL1 (11715823_x_at) / Fold change /veh SYPL1 (11715823_x_at) / RFU IGFBP7 (11715501_s_at) / Fold change /veh IGFBP7 (11715501_s_at) / RFU REEP3 (11722064_at) / Fold change /veh REEP3 (11722064_at) / RFU IGLL1 (11728026_x_at) / Fold change /veh IGLL1 (11728026_x_at): dose or concentration left out as unconfirmed
Details: MV-4-11 cells, 48 hours

`Nc1ccc(-c2cccs2)cc1NC(=O)c1ccc2c(c1)cc(C1CC1)n2CCN1CCOCC1` [ACY-1035] was tested, and the “Fold change /veh ZSCAN30 (11745921_a_at)” value was 1.04.

— publication PMC5218480 (PLoS ONE, 2017)
